# Reference: paper PMC11481179, “Development and Application of Reversible and Irreversible Covalent Probes for Human and Mouse Cathepsin‐K Activity Detection, Revealing Nuclear Activity” (Advanced Science, 2024)
# Target: T1, CTSK in U2-OS cells (Homo sapiens, UniProt P43235)
# T1 construct: ability to label endogenous CTSK activity in intact cells; endogenous in cells; host or cells: U-2 OS
# T1 sequence (P43235 115-329): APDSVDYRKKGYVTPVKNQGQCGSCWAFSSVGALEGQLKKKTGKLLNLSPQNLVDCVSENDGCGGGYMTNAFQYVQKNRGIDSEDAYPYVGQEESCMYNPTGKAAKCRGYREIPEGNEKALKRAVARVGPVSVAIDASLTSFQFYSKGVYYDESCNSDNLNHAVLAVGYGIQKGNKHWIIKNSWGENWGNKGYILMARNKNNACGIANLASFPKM
# Experiment: Colocalization of ABP with anti-CTSK antibody, confocal microscopy
# Assay type: cell-based
# Settings: fixed U2-OS cells
# Description: The probes were then evaluated for their ability to detect active CTSK by fluorescent microscopy. ABPs were incubated with intact U‐2 OS cells, after preincubation with vehicle, a pan cathepsin inhibitor (GB111‐NH2 ),^[ [47] ^] or our selective CTSK inhibitor GD30. Cells were then fixed and imaged by confocal fluorescent microscopy, (Figure 3a). The irreversible GD32 detected active CTSK and was inhibited by both inhibitors, indicating probe specificity. […] However, when live cell imaging was performed without fixation, active CTSK was detected by GD42 although barely, reflecting the probe affinity together with the low level of active CTSK in this cell line (Figure 3b). In order to determine the specificity of GD32’s fluorescence signaling, U2‐OS cells were treated with the probe. […] Additionally, the increased extent of the antibody signal may be attributed to its interaction with the pro‐CTSK, or CTSK that is bound to an endogenous inhibitor, which should not be detected by GD32 since they are not active. Figure 3 CTSK activity detected in intact cells. a) Cultures of U2‐OS cells were grown in 8‐well chambers. […] Red, probe fluorescence, blue, DAPI. page 14: Evaluation of the permeability of GD30, and ODN to intact cells, competition assay: MG63, U87-MG, A549, and U-2 OS cells (5x10^5 cells/well) were seeded in a six-well plate one day before treatment. […]
compound,measurement,value
C#CCNC(=O)[C@H](CC(C)C)N[C@@H](c1ccc(-c2ccc(S(=O)(=O)CCNC(=O)CCCCC[N+]3=C(/C=C/C=C/C=C4/N(C)c5ccc(S(=O)(=O)O)cc5C4(C)C)C(C)(C)c4cc(S(=O)(=O)O)ccc43)cc2)cc1)C(F)(F)F [GD32],overlap coefficiency of probe signal (Cy5) with CTSK antibody (Cy3),0.892
